Tested on: chicken muscle stem cells
Experiment: Muscle differentiation of chicken muscle stem cells in serum-free differentiation medium (MyHC immunocytochemistry, Fusion Index)
Assay type: cell-based
Conditions: additive concentrations of Table 1, second day, FIG. 2
Procedure: Muscle tissue was collected from edible bovine shank meat, and CD56-positive cells were isolated using a Magnetic-Activated Cell Sorting (MACS) system to obtain bovine muscle stem cells. Separately, muscle stem cells were isolated from edible chicken breast meat.
Then, on the second day, the expression of myosin heavy chain (MyHC) was measured by immunocytochemistry. The cells were fixed with 4% paraformaldehyde (Nacalai Tesque, Cat No. 09154-85) for 15 minutes. After washing twice with Dulbecco's phosphate-buffered saline (without Ca, Mg) (Nacalai Tesque, Cat No. 14249-24), the cells were immersed in Dulbecco's phosphate-buffered saline (without Ca, Mg) containing 0.1% Triton X-100 (Sigma, Cat No. T9284) for 10 minutes. Then, the solution was replaced with a blocking buffer and left to stand for 1 hour. As the blocking buffer, a solution was used in which Dulbecco's phosphate-buffered saline (without Ca, Mg) was supplemented with 5% horse serum and 0.1% Triton X-100. […] MyHC-positive cells were detected with a fluorescence microscope ECLIPSE Ti2-E (Nikon), and the Fusion Index (=Number of MyHC-positive nuclei/Total number of nuclei×100(%)) was calculated. […]
Then, on the second day, the expression of myosin heavy chain (MyHC) was measured by the same method as in (1-2).

OCc1ccccc1O[C@@H]1O[C@H](CO)[C@@H](O)[C@H](O)[C@H]1O [Salicin]
muscle differentiation (MyHC expression, Fusion Index): promoted the muscle differentiation of chicken cells

— patent US20260198526A1, “METHOD FOR PROMOTING DIFFERENTIATION OF ANIMAL CELL” (Ajinomoto Co., Inc., priority 2023, published 2026)
